In publication PMC11104609, “Discovery of allosteric regulators with clinical potential to stabilize alpha-L-iduronidase in mucopolysaccharidosis type I” (PLOS ONE, 2024):

How the values were obtained:
[1] = Plasma pharmacokinetics of GT-01803 in mice; format: in vivo, male C57BL/6 mice; conditions: male, C57BL/6, mouse
Procedure: The in vivo pharmacokinetic (PK) profile of GT-01803 in plasma was assessed in male C57BL/6 mice after single intravenous (i.v.) and oral gavage administration (p.o.) of 2 mg/kg and 10 mg/Kg, respectively. The plasma PK evaluation was performed by Sai Life Sciences Limited (Pune, India) in accordance with guidelines of the Institutional Animal Ethics Committee (IAEC). Eighteen male mice were divided into Group 1 (i.v.: 2 mg/kg) or Group 2 (p.o.: 10 mg/kg). Animals in Group 1 and Group 2 were administered intravenously and orally with GT-01803 solution formulation in 5% N-methyl-2-pyrrolidone (NMP), 5% Solutol HS-15 and 90% saline solution at 2 and 10 mg/kg doses, respectively.
Blood samples were collected under light isoflurane anesthesia from retro-orbital plexus such that samples were obtained at 0.08, 0.25, 0.5, 1, 2, 3, 4, 6 and 8 hr. (i.v.) and Pre-dose, 0.25, 0.5, 1, 2, 3, 4, 6 and 8 hr (p.o.). At each time point, blood samples were collected from three mice. Immediately after collection, plasma was harvested by centrifugation and stored at -70 °C until analysis. All samples were processed by protein precipitation using acetonitrile and analyzed with an LC/MS/MS method suitable for the purpose (LLOQ = 1.00 ng/mL).
PK parameters were calculated using the non-compartmental analysis tool of Phoenix WinNonlin (Version 7.0). Maximum concentration (Cmax) and time to reach maximum concentration (Tmax) were the observed values. The areas under the concentration time curve (AUClast and AUCinf) […] were calculated by linear trapezoidal rule. The terminal elimination rate constant, ke, was determined by regression analysis of the linear terminal portion of the log plasma concentration-time curve. The terminal half-life (T1/2) was estimated as follows 0.693/ke; CLi.v. = Dose/AUCinf; Vss = MRT X CLi.v.; %F = [(Mean AUCp.o. × Dosei.v.) / (Mean AUCi.v. × Dosep.o.)] × 100.

[2] = Precipitation observed in DSF dose response; format: physicochemical; conditions: DSF buffer 100 mM Hepes, 20 mM MgCl2, pH 7, 1% DMSO
Procedure: The capacity of the compounds to stabilise IDUA was assessed by DSF. The thermal denaturation of purified human native enzyme was monitored in the presence of the extrinsic fluorescent probe SYPRO® Orange (Thermo Fisher Scientific, Waltham, MA, USA), which binds to hydrophobic parts of proteins that become exposed as the protein unfolds. […] Reactions containing 12.5 μL of 1.5 μM rhIDUA protein (purchased from R&D Systems) in 100 mM Hepes, 20 mM MgCl2, pH 7, to a final protein concentration of 0.75 μM with SYPRO Orange 10X, and 12.5 μL of the different compound solutions dissolved in 100% DMSO and diluted into the protein buffer to achieve final concentrations of 1% DMSO. The intensity of SYPRO Orange fluorescence after a systematic increase in temperature was monitored in the Roche LightCycler® 480 II device (Roche Diagnostics). The significance of the melting temperature (Tm) shifts was evaluated based on two criteria: absolute ΔTm shift > 0.5 °C (instrumental criterion) and absolute ΔTm standard deviation ≤ 0.2 (statistical criterion). The thermal shift dose response was performed at various increasing concentrations (from 0.04 to 90 μM) of compound #18 (GT-01803) with rhIDUA (obtained from the Institute of Biotechnology and Biomedicine at the Autonomous University of Barcelona (UAB), Bellaterra, Spain).

[3] = target: T1, IDUA (Homo sapiens, UniProt P35475); assay: Denaturation prevention (isothermal denaturation) assay with SYPRO Orange; format: binding; parameters: purchased R&D Systems; conditions: 30 μM compound, pH 7.0, 37 °C
T1 sequence (P35475 28-653): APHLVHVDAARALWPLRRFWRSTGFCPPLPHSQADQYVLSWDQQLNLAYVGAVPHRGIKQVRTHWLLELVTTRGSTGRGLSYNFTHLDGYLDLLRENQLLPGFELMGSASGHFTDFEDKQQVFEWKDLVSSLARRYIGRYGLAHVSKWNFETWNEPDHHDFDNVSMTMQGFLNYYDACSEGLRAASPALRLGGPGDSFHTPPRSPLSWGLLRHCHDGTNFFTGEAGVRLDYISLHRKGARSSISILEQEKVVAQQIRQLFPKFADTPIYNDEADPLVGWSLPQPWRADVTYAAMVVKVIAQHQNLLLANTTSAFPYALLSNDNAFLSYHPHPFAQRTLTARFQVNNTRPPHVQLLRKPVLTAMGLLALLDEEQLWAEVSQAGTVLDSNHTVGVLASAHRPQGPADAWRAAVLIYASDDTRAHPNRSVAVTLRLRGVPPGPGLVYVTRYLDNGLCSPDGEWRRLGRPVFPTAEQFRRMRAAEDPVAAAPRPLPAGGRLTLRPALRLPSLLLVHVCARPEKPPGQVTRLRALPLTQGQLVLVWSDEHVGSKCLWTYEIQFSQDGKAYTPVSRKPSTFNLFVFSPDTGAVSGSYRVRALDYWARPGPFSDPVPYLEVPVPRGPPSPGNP
Procedure: The capacity of the compounds to stabilize IDUA in neutral pH buffer was assessed using the denaturation prevention assay. Briefly, rhIDUA (obtained from the Institute of Biotechnology and Biomedicine in the UAB, Bellaterra, Spain) was combined to a final concentration of 1 μM with 5X SYPRO Orange and 30 μM of the corresponding compound in a final reaction volume of 25 μL in 100 mM Hepes, 20 mM MgCl2, pH 7 buffer, or 25 mM NaAc, 150 mM NaCl, pH 5.2. Reactions were incubated at 37 °C, and SYPRO Orange fluorescence intensity was monitored at the indicated time points using Glomax® Discover microplate reader (Promega, Madison, WI, USA). Two independent experiments in triplicate at one concentration (30μM) of compound #18 (GT-01803) were performed for denaturation prevention assays.

AUC(0-inf) ([1]; iv, 2 mg/kg): 13600 ng·h/mL
AUC(0-t) ([1]; iv, 2 mg/kg): 13300 ng·h/mL
clearance ([1]; iv, 2 mg/kg): 2.45 mL/min/kg
half-life ([1]; iv, 2 mg/kg): 3.54 h
C0 ([1]; iv, 2 mg/kg, read-out: C0 (back extrapolated conc.)): 33500 ng/mL
Vd ([1]; iv, 2 mg/kg, read-out: Vss): 0.13 L/kg
bioavailability ([1]; oral, p.o. 10 mg/kg vs i.v. 2 mg/kg, AUClast considered, read-out: %F (oral bioavailability)): 50%
AUC(0-inf) ([1]; po, 10 mg/kg): 33200 ng·h/mL
AUC(0-t) ([1]; po, 10 mg/kg): 33000 ng·h/mL
Cmax ([1]; po, 10 mg/kg): 33900 ng/mL
Tmax ([1]; po, 10 mg/kg): 0.25 h
concentration at which precipitation was observed [2]: 100 µM
pH-induced denaturation of rhIDUA [3]: slowed down
SMILES: CCN(CC(=O)Nc1c(Cl)cccc1Cl)Cc1nc2ccsc2c(=O)[nH]1 [GT-01803]
